Results as given in patent US20260049289A1, “ARRAY PLATFORM FOR HIGH-THROUGHPUT ORGANOID PROFILING” (CZ Biohub SF, LLC, priority 2022, published 2026).

System: patient-derived pancreatic ductal adenocarcinoma (PDAC) organoids
Test: Drug testing of patient-derived PDAC organoids treated with gemcitabine in the microwell platform
Assay type: cell-based, human
Settings: PDAC organoids derived from the same parental cells, imaging (FIG. 6)
Text: FIG. 6: Representative drug evaluation of patient-derived pancreatic ductal adenocarcinoma organoids treated with gemcitabine. Upper panel, organoids sensitive to gemcitabine; lower panel, organoids resistance to gemcitabine. Organoids are a desirable choice for drug screening studies because they retain 3D cellular architecture and therefore recapitulate physiological conditions to a higher degree than traditional cell lines. […] Organoids sensitive to gemcitabine (FIG. 6, top panel) were growth-stunted and/or dissociated compared to resistant organoids (FIG. 6, bottom panel). Whole organoids that display resistance to a drug, can be retrieved and further evaluated, e.g., for genomic changes and/or changes in RNA expression profiles, to evaluate mechanisms of drug resistance, for example, innate versus acquired resistance.

## Nc1ccn([C@@H]2O[C@H](CO)[C@@H](O)C2(F)F)c(=O)n1 [gemcitabine]
  observed drug response of single organoids (growth, dissociation): heterogeneity in observed drug response
